# Read-outs that look alike come from different tables or passages of the source.
# Assays:
# Colo320 = test: cells; assay type: cell-based
# HT-29 = test: cells; assay type: cell-based
# [1] = test system: ECFC/ADSC co-culture cell nuclei number
# SNU-C1 = test: cells; assay type: cell-based
# HCT116 = test: cells; assay type: cell-based
# [2] = test system: HCT116 cells treated with a GSK3β inhibitor; test: cells; assay type: cell-based
# [3] = test system: endothelial tube formation in co-cultures of ECFCs and ADSCs treated with VEGF; test: cells; assay type: cell-based, human
# RKO = test: cells; assay type: cell-based
# DLD-1 = test: cells; assay type: cell-based
# HeLa cells = test: cells; assay type: cell-based
# SW480 = test: cells; assay type: cell-based
# [4] = assay number 26, GSK3b inhibitor pretreated
compound,measurement,setting,value
Cc1ccc2c(Br)cc(Br)c(O)c2n1 [NCGC00160566-02],IC50,"Colo320; assay number 27, basal, read-out: Basal_Viability ATP Colo 320 summarized IC50",0.001 µM
same,IC50,"HT-29; assay number 28, basal, read-out: Basal_Viability ATP HT-29 summarized IC50",> 6.67 µM
same,IC50,[1]; read-out: VEGF_ADSC\ECFC Angio Hoechst NucArea summarized IC50,> 10 µM
same,IC50,"SNU-C1; assay number 30, basal, read-out: Basal_Viability ATP SNU-C1 summarized IC50",12.8 µM
same,IC50,"HCT116; assay number 25, basal, read-out: Basal_Viability ATP HCT116 summarized IC50",1.16 µM
same,IC50,"[2]; assay number 26, GSK3b inhibitor pretreated, read-out: GSK3b inh pretreated_Viability ATP HCT116 summarized IC50",1.03 µM
same,IC50,[3]; read-out: VEGF_ADSC\ECFC Angio CD31 TubeArea summarized IC50,> 10 µM
same,IC50,"RKO; assay number 29, basal, read-out: Basal_Viability ATP RKO summarized IC50",0.311 µM
same,IC50,"DLD-1; assay number 23, basal, read-out: Basal_Viability ATP DLD-1 summarized IC50",4.77 µM
CN1CCC(Nc2ncc3ncnc(Nc4ccc(F)c(Cl)c4)c3n2)CC1 [NCGC00161422-04],Basal_Viability ATP Colo 320 IC50/EC50,Colo320; assay number 27,11.6683 µM
same,Basal_Viability ATP HT-29 IC50/EC50,HT-29; assay number 28,4.003 µM
same,Hela CellCycMod PI 2N IC50/EC50,"HeLa cells; assay number 14, 2N",> 10 µM
same,Hela CellCycMod PI 4N IC50/EC50,"HeLa cells; assay number 16, 4N",> 10 µM
same,Hela CellCycMod PI MI IC50/EC50,"HeLa cells; assay number 17, MI",> 10 µM
same,Hela CellCycMod PI Cell Number IC50/EC50,"HeLa cells; assay number 18, cell number",> 10 µM
same,Basal_Viability ATP SNU-C1 IC50/EC50,SNU-C1; assay number 30,11.9566 µM
same,Basal_Viability ATP HCT116 IC50/EC50,"HCT116; assay number 25, basal",> 20 µM
same,GSK3b inh pretreated_Viability ATP HCT116 IC50/EC50,[2]; [4],3.384 µM
same,Basal_Viability ATP SW480 IC50/EC50,SW480; assay number 24,2.346 µM
same,Basal_Viability ATP RKO IC50/EC50,RKO; assay number 29,3.167 µM
same,Basal_Viability ATP DLD-1 IC50/EC50,DLD-1; assay number 23,2.292 µM
Cl.O=C1[C@H]2CCCC[C@H]2C(=O)N1CCCCN1CCN(c2nsc3ccccc23)CC1 [NCGC00164567-02],Basal_Viability ATP Colo 320 IC50/EC50,Colo320; assay number 27,13.2075 µM
same,Basal_Viability ATP HT-29 IC50/EC50,HT-29; assay number 28,2.0058 µM
same,Hela CellCycMod PI 2N IC50/EC50,"HeLa cells; assay number 14, 2N",> 10 µM
same,Hela CellCycMod PI S Phase IC50/EC50,"HeLa cells; assay number 15, S phase",> 10 µM
same,Hela CellCycMod PI 4N IC50/EC50,"HeLa cells; assay number 16, 4N",> 10 µM
same,Hela CellCycMod PI MI IC50/EC50,"HeLa cells; assay number 17, MI",> 10 µM
same,Hela CellCycMod PI Cell Number IC50/EC50,"HeLa cells; assay number 18, cell number",> 10 µM
same,Basal_Viability ATP SNU-C1 IC50/EC50,SNU-C1; assay number 30,9.3713 µM
same,Basal_Viability ATP HCT116 IC50/EC50,"HCT116; assay number 25, basal",2.0649 µM
same,GSK3b inh pretreated_Viability ATP HCT116 IC50/EC50,[2]; [4],1.6729 µM
same,Basal_Viability ATP SW480 IC50/EC50,SW480; assay number 24,5.9082 µM
same,Basal_Viability ATP RKO IC50/EC50,RKO; assay number 29,0.5459 µM
same,Basal_Viability ATP DLD-1 IC50/EC50,DLD-1; assay number 23,8.238 µM
O=C(NC1CCN(CCc2c[nH]c3ccccc23)CC1)c1ccccc1 [NCGC00165810-02],Basal_Viability ATP Colo 320 IC50/EC50,"Colo320; assay number 27, basal",> 20 µM
same,Basal_Viability ATP HT-29 IC50/EC50,"HT-29; assay number 28, basal",> 20 µM
same,VEGF_ADSC\ECFC Angio Hoechst NucArea IC50/EC50,[1],> 10 µM
same,Basal_Viability ATP SNU-C1 IC50/EC50,"SNU-C1; assay number 30, basal",> 20 µM
same,GSK3b inh pretreated_Viability ATP HCT116 IC50/EC50,[2]; [4],> 20 µM
same,Basal_Viability ATP SW480 IC50/EC50,"SW480; assay number 24, basal",> 20 µM
same,VEGF_ADSC\ECFC Angio CD31 TubeArea IC50/EC50,[3],> 10 µM
same,Basal_Viability ATP RKO IC50/EC50,"RKO; assay number 29, basal",> 20 µM
same,Basal_Viability ATP DLD-1 IC50/EC50,"DLD-1; assay number 23, basal",> 20 µM
CCN1/C(=C/C=C/c2sc3ccccc3[n+]2CC)Sc2ccccc21.[I-] [NCGC00166288-02],"IC50/EC50, Basal_Viability ATP Colo 320 (assay number 27)",Colo320; basal,0.562 µM
same,"IC50/EC50, Basal_Viability ATP HT-29 (assay number 28)",HT-29; basal,0.00838 µM
same,"IC50/EC50, Hela CellCycMod PI 2N (assay number 14)",HeLa cells; 2N,8.506 µM
same,"IC50/EC50, Hela CellCycMod PI 4N (assay number 16)",HeLa cells; 4N,> 10 µM
same,"IC50/EC50, Hela CellCycMod PI Cell Number (assay number 18)",HeLa cells; Cell Number,0.03604 µM
same,"IC50/EC50, Hela CellCycMod PI MI (assay number 17)",HeLa cells; MI,4.476 µM
same,"IC50/EC50, Hela CellCycMod PI S Phase (assay number 15)",HeLa cells; S Phase,> 10 µM
same,"IC50/EC50, Basal_Viability ATP SNU-C1 (assay number 30)",SNU-C1; basal,0.01721 µM
same,"IC50/EC50, Basal_Viability ATP HCT116 (assay number 25)",HCT116; basal,0.00957 µM
same,"IC50/EC50, GSK3b inh pretreated_Viability ATP HCT116 (assay number 26)",[2]; GSK3b inh pretreated,0.00875 µM
same,"IC50/EC50, Basal_Viability ATP SW480 (assay number 24)",SW480; basal,0.172 µM
same,"IC50/EC50, Basal_Viability ATP RKO (assay number 29)",RKO; basal,0.00898 µM
same,"IC50/EC50, Basal_Viability ATP DLD-1 (assay number 23)",DLD-1; basal,0.0148 µM
O=C(c1cc(O)c(O)c(O)c1)c1ccc(O)c(O)c1O [NCGC00249050-02],Basal_Viability ATP Colo 320 IC50/EC50,Colo320,9.382 µM
same,Basal_Viability ATP HT-29 IC50/EC50,HT-29,9.4494 µM
same,Hela CellCycMod PI 2N IC50/EC50,HeLa cells,> 10 µM
same,Hela CellCycMod PI 4N IC50/EC50,HeLa cells,> 10 µM
same,Hela CellCycMod PI Cell Number IC50/EC50,HeLa cells,> 10 µM
same,Hela CellCycMod PI MI IC50/EC50,HeLa cells,> 10 µM
same,Hela CellCycMod PI S Phase IC50/EC50,HeLa cells,> 10 µM
same,Basal_Viability ATP SNU-C1 IC50/EC50,SNU-C1,12.767 µM
same,Basal_Viability ATP HCT116 IC50/EC50,HCT116,16.3036 µM
same,GSK3b inh pretreated_Viability ATP HCT116 IC50/EC50,[2],0.06911 µM
same,Basal_Viability ATP SW480 IC50/EC50,SW480,9.9516 µM
same,Basal_Viability ATP RKO IC50/EC50,RKO,0.1924 µM
same,Basal_Viability ATP DLD-1 IC50/EC50,DLD-1,11.8874 µM
O=Cc1ccc(O)c(O)c1O [NCGC00262933-01],"IC50/EC50, Basal_Viability ATP Colo 320 (assay number 27)",Colo320,9.0837 µM
same,"IC50/EC50, Basal_Viability ATP HT-29 (assay number 28)",HT-29,> 20 µM
same,"IC50/EC50, Hela CellCycMod PI 2N (assay number 14)",HeLa cells,> 10 µM
same,"IC50/EC50, Hela CellCycMod PI 4N (assay number 16)",HeLa cells,> 10 µM
same,"IC50/EC50, Hela CellCycMod PI Cell Number (assay number 18)",HeLa cells,> 10 µM
same,"IC50/EC50, Hela CellCycMod PI MI (assay number 17)",HeLa cells,> 10 µM
same,"IC50/EC50, Hela CellCycMod PI S Phase (assay number 15)",HeLa cells,> 10 µM
same,"IC50/EC50, Basal_Viability ATP SNU-C1 (assay number 30)",SNU-C1,> 20 µM
same,"IC50/EC50, Basal_Viability ATP HCT116 (assay number 25)",HCT116,> 20 µM
same,"IC50/EC50, GSK3b inh pretreated_Viability ATP HCT116 (assay number 26)",[2],0.1412 µM
same,"IC50/EC50, Basal_Viability ATP SW480 (assay number 24)",SW480,11.3319 µM
same,"IC50/EC50, Basal_Viability ATP RKO (assay number 29)",RKO,6.232 µM
same,"IC50/EC50, Basal_Viability ATP DLD-1 (assay number 23)",DLD-1,> 20 µM

# From paper PMC4503722, “Novel Phenotypic Outcomes Identified for a Public Collection of Approved Drugs from a Publicly Accessible Panel of Assays” (PLoS ONE, 2015)
